What was measured:
[1] = tested on: Asexual parasites of P. falciparum strain 3D7; assay: In vitro drug activity on asexual parasites (SYBR Green assay); format: cell-based, Plasmodium falciparum
Summary of the method: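 3D7 parasites at 0.5% parasitemia and 2% hematocrit were exposed to drugs (DMSO ≤0.5%) for 72 h under standard culture conditions, in duplicate. After freeze-thaw lysis, SYBR Green I lysis buffer was added for 30 min at room temperature, and fluorescence was read at 490/520 nm.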

[2] = Solubility at pH 7.4; format: physicochemical
[3] = Microsomal stability (rat); format: in vitro ADME; conditions: rat microsomes
[4] = biological target: mTOR (Homo sapiens, UniProt P42345); assay: mTOR activity (no method described); format: biochemical
[5] = tested on: Stage III-V gametocytes (blood stage P. falciparum parasites); assay: In vitro drug activity on gametocytes (AlamarBlue viability assay); format: cell-based, Plasmodium falciparum; conditions: read-out: Gametocyte EC50
Summary of the method: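 P. falciparum 3D7 stage III–V gametocytes (also HB3, Dd2), enriched by 50 mM N-acetylglucosamine and Percoll gradient, seeded at 20,000/well with compound for 72 h at 37° C, 5% CO2. AlamarBlue then added for 24 h; viability read as fluorescence (Ex 525, Em 598 nm).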

[6] = PAMPA permeability; format: in vitro ADME

SMILES	EC50 [1]	Sol @ pH 7.4 [2]	Microsomal Stability (rat) T1/2 [3]	mTOR [4]	PAMPA Permeability [6]	EC50 [5]
O=C(c1ccc(-n2c(=O)ccc3cnc4ccc(-c5ccc(Cl)cc5)cc4c32)cc1)N1CCCC1 [Compound 106]	64 nM	<1.0 ug/mL	2.1 min	1735 nM	621 ×10⁻⁶ cm/s	126 nM
CCN(CC)C(=O)c1ccc(-n2c(=O)ccc3cnc4ccc(-c5ccc(Cl)cc5)cc4c32)cc1 [Compound 132]	63.1 nM	<1.0 ug/mL	<1.0 min	736.2 nM	2320 ×10⁻⁶ cm/s	344 nM
O=C(NC1C2CNCC21)c1ccc(-n2c(=O)ccc3cnc4ccc(-c5ccc(Cl)cc5)cc4c32)cc1 (stereo not drawn) [Compound 172]	121 nM	2.3 ug/mL	>30.0 min	967.8 nM	12.3 ×10⁻⁶ cm/s	203 nM
O=C(c1ccc(-n2c(=O)ccc3cnc4ccc(-c5ccc(Cl)cc5)cc4c32)cc1)N1CCN(CCO)CC1 [Compound 109]	60.7 nM	4.2 ug/mL	12.3 min	3260 nM	227 ×10⁻⁶ cm/s	18 nM
CN(C)Cc1ccc(-c2ccc3ncc4ccc(=O)n(-c5ccc(C(=O)NC6CC6)cc5)c4c3c2)cc1 [Compound 163]	93.9 nM	>72.0 ug/mL	>30.0 min	6497 nM	232 ×10⁻⁶ cm/s	246 nM
CN(C(=O)c1ccc(-n2c(=O)ccc3cnc4ccc(-c5ccc(Cl)cc5)cc4c32)cc1)C1CC1 [Compound 143]	63.1 nM	<1.0 ug/mL	1.6 min	671.6 nM	1420 ×10⁻⁶ cm/s	242 nM
NC(=O)c1ccc(-n2c(=O)ccc3cnc4ccc(-c5ccc(N)nc5)cc4c32)cc1 [Compound 336]	10.2 nM	<1.0 ug/mL	>30.0 min	19.71 nM	< 3.6 ×10⁻⁶ cm/s	41 nM
CN(C)C(=O)c1cccc(-n2c(=O)ccc3cnc4ccc(-c5ccc(N)nc5)cc4c32)c1 [Compound 332]	859 nM	>64.0 ug/mL	>30.0 min	494.9 nM	31.9 ×10⁻⁶ cm/s	1520 nM
O=C(c1ccc(-n2c(=O)ccc3cnc4ccc(-c5ccc(F)cc5)cc4c32)cc1)N1CCOCC1 [Compound 107]	32.3 nM	<1.0 ug/mL	6.9 min	541.4 nM	10.1 ×10⁻⁶ cm/s	65.9 nM
CN(C)Cc1ccc(-c2ccc3ncc4ccc(=O)n(-c5ccc(C(=O)N6CCNCC6)cc5)c4c3c2)cc1 [Compound 167]	223 nM	>76.0 ug/mL	>30.0 min	22690 nM	1.5 ×10⁻⁶ cm/s	469 nM
O=C(c1ccc(-n2c(=O)ccc3cnc4ccc(-c5ccc(CN6CCCC6)cc5)cc4c32)cc1)N1CCOCC1 [Compound 184]	171 nM	56.1 ug/mL	>30 min	18050 nM	292 ×10⁻⁶ cm/s	821 nM
O=C1NCc2cc(-c3ccc4ncc5ccc(=O)n(-c6ccc(C(=O)N7CCOCC7)cc6)c5c4c3)ccc21 [Compound 129]	1440 nM	20.3 ug/mL	>30.0 min	856.7 nM	5.4 ×10⁻⁶ cm/s	680 nM
Cn1c(=O)n(-c2cccc(C#N)c2)c2c3cc(-c4cccc(C#N)c4)ccc3ncc21 [Compound 401]	86.7 nM	<1.0 ug/mL	>30.0 min	1271 nM	297 ×10⁻⁶ cm/s	190 nM
O=C(c1ccc(-n2c(=O)ccc3cnc4ccc(-c5cccc(O)c5)cc4c32)cc1)N1CCOCC1 [Compound 128]	6.05 nM	1.5 ug/mL	12.7 min	310.6 nM	735 ×10⁻⁶ cm/s	31.4 nM

Further lines, with some results ahead:

EC50 [1]	Sol @ pH 7.4 [2]	Microsomal Stability (rat) T1/2 [3]	mTOR [4]	PAMPA Permeability [6]	SMILES	EC50 [5]
20.2 nM	9.2 ug/mL	>30.0 min	202.1 nM	467 ×10⁻⁶ cm/s	Nc1cccc(-c2ccc3ncc4ccc(=O)n(-c5ccc(C(=O)N6CCOCC6)cc5)c4c3c2)c1 [Compound 130]	72.2 nM
165 nM	<1.0 ug/mL	>30.0 min	100000 nM	1460 ×10⁻⁶ cm/s	Cc1ccc(C#N)cc1-n1c(=O)n(C)c2cnc3ccc(-c4ccc(Cl)cc4)cc3c21 [Compound 400]	294 nM
14.4 nM	2.8 ug/mL	>30.0 min	28.21 nM	< 2.2 ×10⁻⁶ cm/s	CNC(=O)c1ccc(-n2c(=O)ccc3cnc4ccc(-c5ccc(N)nc5)cc4c32)cc1 [Compound 335]	17.7 nM
74.3 nM	6.3 ug/mL	10.5 min	2997 nM	76.1 ×10⁻⁶ cm/s	O=C(c1ccc(-n2c(=O)ccc3cnc4ccc(-c5ccc(Cl)cc5)cc4c32)cc1)N1CCNCC1 [Compound 103]	71.3 nM
594 nM	>79.0 ug/mL	>30.0 min	40420 nM	238 ×10⁻⁶ cm/s	CN(C)Cc1ccc(-c2ccc3ncc4ccc(=O)n(-c5ccc(C(=O)N6CCN(C)CC6)cc5)c4c3c2)cc1 [Compound 164]	809 nM
1240 nM	<1.0 ug/mL	10.7 min	27970 nM	< 1 ×10⁻⁶ cm/s	O=C(NC1CCCCC1)c1ccc(-n2c(=O)ccc3cnc4ccc(-c5ccc(Cl)cc5)cc4c32)cc1 [Compound 155]	3110 nM
160 nM	<1.0 ug/mL	8 min	765.7 nM	< 1 ×10⁻⁶ cm/s	O=C(NC1CCC1)c1ccc(-n2c(=O)ccc3cnc4ccc(-c5ccc(Cl)cc5)cc4c32)cc1 [Compound 154]	102 nM
17500 nM	>75.0 ug/mL	>30.0 min	1557 nM	1.9 ×10⁻⁶ cm/s	O=C(O)c1cccc(-c2ccc3ncc4ccc(=O)n(-c5ccc(C(=O)N6CCOCC6)cc5)c4c3c2)c1 [Compound 131]	17400 nM
72.7 nM	>70.0 ug/mL	>30.0 min	8762 nM	427 ×10⁻⁶ cm/s	CN(C)Cc1ccc(-c2ccc3ncc4ccc(=O)n(-c5ccc(C(=O)N(C)C)cc5)c4c3c2)cc1 [Compound 166]	179 nM
60.6 nM	<1.0 ug/mL	4.9 min	1214 nM	363 ×10⁻⁶ cm/s	COc1cc(-c2ccc3ncc4ccc(=O)n(-c5ccc(C(=O)N6CCOCC6)cc5)c4c3c2)ccc1Cl [Compound 145]	266 nM
186 nM	7.5 ug/mL	5 min	5191 nM	1080 ×10⁻⁶ cm/s	CN1CCN(C(=O)c2ccc(-n3c(=O)ccc4cnc5ccc(-c6ccc(Cl)cc6)cc5c43)cc2)CC1 [Compound 102]	116 nM
59.2 nM	>77.0 ug/mL	9.6 min	6373 nM	1390 ×10⁻⁶ cm/s	CN1CC2CC1CN2C(=O)c1ccc(-n2c(=O)ccc3cnc4ccc(-c5ccc(Cl)cc5)cc4c32)cc1 (stereo not drawn) [Compound 140]	272 nM
892 nM	52.9 ug/mL	>30.0 min	12450 nM	767 ×10⁻⁶ cm/s	CN(C)Cc1ccc(-c2ccc3ncc4c(c3c2)n(-c2cccc(C#N)c2)c(=O)n4C)cc1 [Compound 436]	1970 nM
20.6 nM	<1.0 ug/mL	4.3 min	405.1 nM	238 ×10⁻⁶ cm/s	O=C(c1ccc(-n2c(=O)ccc3cnc4ccc(-c5ccc(Cl)cc5)cc4c32)cc1)N1C2CCC1CC(O)C2 (stereo not drawn) [Compound 139]	153 nM
512 nM	>82.0 ug/mL	>30.0 min	47050 nM	5.4 ×10⁻⁶ cm/s	CN(C)Cc1ccc(-c2ccc3ncc4ccc(=O)n(-c5ccc(C(=O)N6CC7CN(C)CC7C6)cc5)c4c3c2)cc1 (stereo not drawn) [Compound 161]	1540 nM
94.5 nM	8.6 ug/mL	7.8 min	3591 nM	1290 ×10⁻⁶ cm/s	Nc1cc(Cl)ccc1-c1ccc2ncc3ccc(=O)n(-c4ccc(C(=O)N5CCOCC5)cc4)c3c2c1 [Compound 136]	733 nM

Reference: US11753408B2, “Compounds and method for blocking transmission of malarial parasite” (The United States of America, as represented by the …, priority 2016, dated 2023)
